Legend:
[1] = biological target: T1, alpha 2A adrenergic receptor (Homo sapiens, UniProt P08913); experiment: RSAT (Receptor Selection and Amplification Technology) assay, alpha 2A; assay type: cell-based; conditions: for EC50: NIH-3T3 cells cotransfected with receptor and Gq/i5
T1 construct: expressed in transfected cells; host or cells: NIH-3T3 cells, transient cotransfection by calcium phosphate
T1 sequence (P08913 1-465): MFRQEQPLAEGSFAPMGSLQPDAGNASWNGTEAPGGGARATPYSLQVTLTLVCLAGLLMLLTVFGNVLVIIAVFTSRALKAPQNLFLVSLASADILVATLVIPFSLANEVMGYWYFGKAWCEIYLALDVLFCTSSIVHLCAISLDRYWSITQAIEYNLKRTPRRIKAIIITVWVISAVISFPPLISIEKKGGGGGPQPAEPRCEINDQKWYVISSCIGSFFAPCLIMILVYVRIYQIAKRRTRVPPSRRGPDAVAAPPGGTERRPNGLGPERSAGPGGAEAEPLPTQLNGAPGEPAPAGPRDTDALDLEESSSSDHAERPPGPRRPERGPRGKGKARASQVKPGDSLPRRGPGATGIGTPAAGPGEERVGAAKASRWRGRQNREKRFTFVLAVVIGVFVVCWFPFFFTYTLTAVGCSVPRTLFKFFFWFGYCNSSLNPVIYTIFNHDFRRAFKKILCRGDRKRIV
Description: (§1) Activity was measured using the RSAT (Receptor Selection and Amplification Technology) assay, developed by Receptor Technologies, Inc. of Winooski, Vt. (now Acadia Pharmaceuticals of San Diego, Calif.), adapted for use with recombinant alpha2 adrenergic receptors in collaboration with Allergan. The assay measures receptor-mediated loss of contact inhibition that results in selective proliferation of receptor-containing cells in a mixed population of confluent cells. The increase in cell number is assessed with an appropriate transfected marker gene such as β-galactosidase, the activity of which can be easily measured in a 96-well format. Receptors that activate the G protein, Gq, elicit this response. Alpha2 receptors, which normally couple to Gi, activate the RSAT response when coexpressed with a hybrid Gq protein that has a Gi receptor recognition domain, called Gq/i5.
(§2) The assay is conducted as follows. NIH-3T3 cells are plated at a density of 2×10^6 cells in 15 cm dishes and maintained in Dulbecco's modified Eagle's medium supplemented with 10% calf serum. One day later, cells are cotransfected by calcium phosphate precipitation with mammalian expression plasmids encoding p-SV-β-galactosidase (5-10 μg), receptor (1-2 μg) and G protein (1-2 μg). 40 μg salmon sperm DNA may also be included in the transfection mixture to increase transfection efficiency. Fresh media is added on the following day and 1-2 days later, cells are harvested and frozen in 50 assay aliquots. Transfectant cells are thawed and 100 μl added to 100 μl aliquots of various concentrations of drugs in triplicate in 96-well dishes. Incubations continue 72-96 hr at 37°. After washing with phosphate-buffered saline, β-galactosidase enzyme activity is determined by adding 200 μl of the chromogenic substrate (consisting of 3.5 mM o-nitrophenyl-β-D-galactopyranoside and 0.5% of the non-ionic surfactant nonidet P-40 in phosphate buffered saline), incubating overnight at 30° and measuring optical density at 420 nm. The absorbency is a measure of enzyme activity, which depends on cell number and reflects a receptor-mediated cell proliferation. The EC50 and maximal effect of each drug at each alpha2 receptor is determined. The efficacy or intrinsic activity is calculated as a ratio of the maximal effect of the drug to the maximal effect of a standard full agonist for each receptor subtype. Brimonidine, also called UK14304, is used as the standard agonist for the alpha2A, alpha2B and alpha2C receptors. The RSAT assay is also discussed in Messier et al. (1995) High throughput assays of cloned adrenergic, muscarinic, neurokinin and neurotrophin receptors in living mammalian cells, Pharmacol. Toxicol. 76:308-11; see also Conklin et al. (1993) Substitution of three amino acids switches receptor specificity of Gqα to that of Giα, Nature 363:274-6; Both of these papers are incorporated by reference herein.

[2] = biological target: T2, alpha 2B adrenergic receptor (Homo sapiens, UniProt P18089); experiment: RSAT (Receptor Selection and Amplification Technology) assay, alpha 2B; assay type: cell-based; conditions: for EC50: NIH-3T3 cells cotransfected with receptor and Gq/i5; for efficacy or intrinsic activity (value in parentheses) Alpha 2B: ratio of maximal effect to that of standard full agonist brimonidine
T2 construct: expressed in transfected cells; host or cells: NIH-3T3 cells, transient cotransfection by calcium phosphate
T2 sequence (P18089 1-450): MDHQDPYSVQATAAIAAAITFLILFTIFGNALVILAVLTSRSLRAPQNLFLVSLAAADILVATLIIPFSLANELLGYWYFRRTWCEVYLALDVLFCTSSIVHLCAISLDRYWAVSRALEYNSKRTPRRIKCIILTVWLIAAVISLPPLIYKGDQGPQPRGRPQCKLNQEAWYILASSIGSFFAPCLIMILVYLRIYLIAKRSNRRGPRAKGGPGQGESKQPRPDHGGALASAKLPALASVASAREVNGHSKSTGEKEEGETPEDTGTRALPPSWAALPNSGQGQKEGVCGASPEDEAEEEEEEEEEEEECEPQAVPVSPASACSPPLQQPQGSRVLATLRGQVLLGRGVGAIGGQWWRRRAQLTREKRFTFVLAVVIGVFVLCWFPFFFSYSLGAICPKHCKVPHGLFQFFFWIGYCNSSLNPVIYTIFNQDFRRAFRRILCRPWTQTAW
Description: as §1, §2

[3] = biological target: T3, alpha 2C adrenergic receptor (Homo sapiens, UniProt P18825); experiment: RSAT (Receptor Selection and Amplification Technology) assay, alpha 2C; assay type: cell-based; conditions: for EC50: NIH-3T3 cells cotransfected with receptor and Gq/i5
T3 construct: expressed in transfected cells; host or cells: NIH-3T3 cells, transient cotransfection by calcium phosphate
T3 sequence (P18825 1-462): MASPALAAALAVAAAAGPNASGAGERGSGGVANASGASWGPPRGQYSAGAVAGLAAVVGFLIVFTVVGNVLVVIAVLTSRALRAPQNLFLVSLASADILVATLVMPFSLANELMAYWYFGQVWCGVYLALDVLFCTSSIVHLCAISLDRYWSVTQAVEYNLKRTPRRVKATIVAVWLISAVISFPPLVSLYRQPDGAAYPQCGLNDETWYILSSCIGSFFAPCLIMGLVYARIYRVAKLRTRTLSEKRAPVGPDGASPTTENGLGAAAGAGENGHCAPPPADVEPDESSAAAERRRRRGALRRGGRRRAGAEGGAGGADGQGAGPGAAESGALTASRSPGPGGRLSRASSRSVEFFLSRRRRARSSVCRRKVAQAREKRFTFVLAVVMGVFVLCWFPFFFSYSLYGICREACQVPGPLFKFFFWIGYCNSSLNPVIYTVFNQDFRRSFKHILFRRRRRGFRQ
Description: as §1, §2

Sprague-Dawley rats = experiment: rat locomotor model to assess sedation; assay type: in vivo; conditions: 3 mg/kg i.p., 30 minutes after injection, vs vehicle controls
Description: (§3) The physiological activity of these compounds was tested using four models: a rat locomotor model to assess sedation, an assay of cardiovascular activity in monkeys, a rat thermal paw withdrawal assay (Dirig et al., J. Neurosci. Methods 76:183-191 (1997) to test the alleviation of acute pain, and the rat spinal nerve ligation allodynia model (Kim and Chung, Pain 50:355-363 (1992) to assess the alleviation of neuropathic pain and central sensitization typical of chronic pain. As is known to those of skill in the art, these tests are established pharmacological methods for determining sedation, cardiovascular effects, acute pain and chronic pain, respectively, of pharmaceutical agents.
To test sedation, six male Sprague-Dawley rats were given up to 3 mg/kg of each compound in a saline or DMSO vehicle by intraperitoneal injection (i.p.). Sedation was graded 30 minutes following administration of the drug by monitoring locomotor skills as follows.
The Sprague-Dawley rats are weighed and 1 ml/kg body weight of an appropriate concentration (i.e. 3 mg/ml for a final dose of 3 mg/kg) drug solution is injected intraperitoneally. FORMULA 3 is formulated in approximately 10% DMSO and FORMULA 2 and FORMULA 4 are formulated in 50% DMSO. The results are compared to 29 historical controls that were injected with 1 ml/kg saline or 50% DMSO. Rat activity is then determined 30 minutes after injection of the drug solution. Rats are placed in a dark covered chamber and a digicom analyzer (Omnitech Electronic) quantitates their exploratory behavior for a five-minute period. The machine records each time the rat interrupts an array of 32 photoelectric beams in the X and Y orientation.

[4] = test system: rats with ligated L5 and L6 spinal nerves; experiment: rat spinal nerve ligation allodynia model (chronic pain); assay type: in vivo; conditions: i.p., doses up to 3 mg/kg, 30 minutes after drug
Description: as §3
A model for chronic pain (in particular peripheral neuropathy such as causalgia) involves the surgical ligation of the L5 (and optionally the L6) spinal nerves on one side in experimental animals. Rats recovering from the surgery gain weight and display a level of general activity similar to that of normal rats. However, these rats develop abnormalities of the foot, wherein the hindpaw is moderately everted and the toes are held together. More importantly, the hindpaw on the side affected by the surgery appears to become sensitive to pain from low-threshold mechanical stimuli, such as that producing a faint sensation of touch in a human, within about 1 week following surgery. This sensitivity to normally non-painful touch is called “tactile allodynia” and lasts for at least two months. The response includes lifting the affected hindpaw to escape from the stimulus, licking the paw and holding it in the air for many seconds. None of these responses is normally seen in the control group.
Rats are anesthetized before surgery. The surgical site is shaved and prepared either with betadine or Novacaine. Incision is made from the thoracic vertebra Xlll down toward the sacrum. Muscle tissue is separated from the spinal vertebra (left side) at the L4-S2 levels. The L6 vertebra is located and the transverse process is carefully removed with a small rongeur to expose the L4-L6 spinal nerves. The L5 and L6 spinal nerves are isolated and tightly ligated with 6-0 silk thread. The same procedure is done on the right side as a control, except no ligation of the spinal nerves is performed.
A complete hemostasis is confirmed, then the wounds are sutured. A small amount of antibiotic ointment is applied to the incised area, and the rat is transferred to the recovery plastic cage under a regulated heat-temperature lamp. On the day of the experiment, at least seven days after the surgery, six rats per test group are administered the test drugs by intraperitoneal (i.p.) injection or oral gavage. For i.p. injection, the compounds are formulated in approximately 50% DMSO and given in a volume of 1 ml/kg body weight. FORMULA 2 was tested at doses ranging between 1 and 300 μg /kg, FORMULA 3 was tested at doses between 0.1 and 3 mg/kg and FORMULA 4 was tested at doses of 0.3 and 3 mg/kg. FORMULA 2 was also administered by oral gavage at doses of 0.1, 0.3 and 1 mg/kg body weight to 24-hour fasted rats. A volume equal to 1 ml/kg body weight of an appropriate concentration (i.e. 1 mg/ml for a 1 mg/kg dose) of FORMULA 2 formulated in approximately 50% DMSO was injected using an 18-gauge, 3-inch gavage needle that is slowly inserted through the esophagus into the stomach.
Tactile allodynia is measured prior to and 30 minutes after drug administration using von Frey hairs that are a series of fine hairs with incremental differences in stiffness. Rats are placed in a plastic cage with a wire mesh bottom and allowed to acclimate for approximately 30 minutes. The von Frey hairs are applied perpendicularly through the mesh to the mid-plantar region of the rats' hindpaw with sufficient force to cause slight buckling and held for 6-8 seconds. The applied force has been calculated to range from 0.41 to 15.1 grams. If the paw is sharply withdrawn, it is considered a positive response. […]

[5] = ratio of maximal effect to that of standard full agonist brimonidine

EC50 [1] [nM]	EC50 [2] [nM]	efficacy or intrinsic activity (value in parentheses) Alpha 2B [2]	EC50 [3] [nM]	efficacy or intrinsic activity (value in parentheses) Alpha 2A [1, 5]	efficacy or intrinsic activity (value in parentheses) Alpha 2C [3, 5]	SMILES	reduction in the exploratory activity of the rats (sedation) (Sprague-Dawley rats)	analgesic activity (tactile allodynia) [4]
≥ 210000	120	0.92	≥ 210000			Cc1cc(CNC(=S)NCCO)c(F)c(F)c1F		
295	14	0.9	≥ 210000	0.3		OCCNC(=S)NCc1cccc(Br)c1		
≥ 210000	380	0.93	≥ 210000			OCCNC(=S)NCc1c(Cl)cccc1Cl		
≥ 210000	512	1.07	≥ 210000			OCCNC(=S)NCc1cc(Br)c(F)c(F)c1F		

Continued, compound first:

SMILES	EC50 [1] [nM]	EC50 [2] [nM]	efficacy or intrinsic activity (value in parentheses) Alpha 2B [2]	EC50 [3] [nM]	efficacy or intrinsic activity (value in parentheses) Alpha 2A [1, 5]	efficacy or intrinsic activity (value in parentheses) Alpha 2C [3, 5]	reduction in the exploratory activity of the rats (sedation) (Sprague-Dawley rats)	analgesic activity (tactile allodynia) [4]
OCCNC(=S)NCc1c(F)c(F)c(F)c(F)c1F	≥ 210000	2360	0.73	≥ 210000				
OCCNC(=S)NCc1ccc(F)cc1Cl	≥ 210000	579	0.75	≥ 210000				
Cc1cc(Br)cc(CNC(=S)NCCO)c1F	≥ 210000	240	0.8	1490		0.37		
OCCNC(=S)NCc1ccccc1F [FORMULA 4]							none of the compounds caused a statistically significant reduction	no analgesic activity
